Source: ChEMBL document CHEMBL1123572, “Synthesis and antiarrhythmic activity of novel 3-alkyl-1-[omega-[4-[(alkylsulfonyl)amino]phenyl]-omega- hydroxyalkyl]-1H-imidazolium salts and related compounds. 2” (1987)
Several values for one entry are separate records, joined by “and”; a condition that tells them apart may be missing. Equal values may be shown once.

Columns and labels:
Canis familiaris [1] = organism: Canis familiaris; test: In vitro activity in isolated canine cardiac Purkinje fibers given as maximum change in APD95 from control value at 100 uM of concentration; type: functional, Canis lupus familiaris, Purkinje fiber
Canis familiaris [2] = organism: Canis familiaris; test: In vitro electrophysiological activity in isolated canine cardiac ventricular muscle tissue given as maximum change in FRP from control value at 100 uM concentration; type: functional, Canis lupus familiaris
Canis familiaris [3] = organism: Canis familiaris; test: In vitro activity in isolated canine cardiac ventricular muscle tissue given as 20 percent increase or decrease in FRP (functional refractory period); set-up: species or system Canis lupus familiaris
Canis familiaris [4] = organism: Canis familiaris; test: In vitro activity in isolated canine cardiac Purkinje fibers given as 20 percent increase or decrease in action potential duration; type: functional, Canis lupus familiaris, Purkinje fiber
Canis familiaris [5] = organism: Canis familiaris; test: The compound was evaluated for the mean effective dose for antiarrhythmic efficacy in PES model; type: functional; conditions: Canis lupus familiaris, Heart; read-out: MED
Canis familiaris [6] = test: The compound was evaluated the change in blood pressure at 10 mg/kg active dose; type: functional, Canis lupus familiaris
Canis familiaris [7] = organism: Canis familiaris; test: The compound was evaluated for the change in heart rate at MED for 0.3-30 dose range in PES model.; type: functional, Canis lupus familiaris
Canis familiaris [8] = test: The compound was evaluated the change in heart rate at 10 mg/kg active dose; type: functional, Canis lupus familiaris
Canis familiaris [9] = organism: Canis familiaris; test: The compound was evaluated for the change in blood pressure at MED for 0.3-30 dose range in PES model; type: functional, Canis lupus familiaris
Canis familiaris [10] = test: The compound was evaluated the change in functional refractory period at 10 mg/kg active dose; set-up: species or system Canis lupus familiaris
Canis familiaris [11] = organism: Canis familiaris; test: The compound was evaluated for the change in heart rate at MED for 0.3-10 dose range in PES model; type: functional, Canis lupus familiaris
Canis familiaris [12] = organism: Canis familiaris; test: The compound was evaluated for the change in blood pressure at MED for 0.3-10 dose range in PES model; type: functional, Canis lupus familiaris
Canis familiaris [13] = organism: Canis familiaris; test: In vitro electrophysiological activity in isolated canine cardiac ventricular muscle tissue given as maximum change in FRP from control value at 100 uM concentration; NR = Not reached; type: functional; conditions: Canis lupus familiaris
Canis familiaris [14] = organism: Canis familiaris; test: The compound was evaluated for the change in heart rate at MED for 0.1-30 dose range in PES model; type: functional, Canis lupus familiaris
Canis familiaris [15] = organism: Canis familiaris; test: The compound was evaluated for the change in blood pressure at MED for 0.1-30 dose range in PES model; type: functional, Canis lupus familiaris
Canis familiaris [16] = organism: Canis familiaris; test: In vitro activity in isolated canine cardiac Purkinje fibers given as maximum change in APD95 from control value at 10 uM of concentration; type: functional, Canis lupus familiaris, Purkinje fiber
Canis familiaris [17] = organism: Canis familiaris; test: The compound was evaluated for the change in heart rate at MED for 0.1-10 dose range in PES model; type: functional, Canis lupus familiaris
Canis familiaris [18] = organism: Canis familiaris; test: The compound was evaluated for the change in blood pressure at MED for 0.1-10 dose range in PES model; type: functional, Canis lupus familiaris

CC(C(=O)c1ccc(NS(C)(=O)=O)cc1)n1cc[n+](C)c1.[Cl-] (configuration not stated)
APD95 (Canis familiaris [1]): 65%
FRP (Canis familiaris [2]): 22%
C20 FRP (Canis familiaris [3]): 7.7 µM
C20 APD95 (Canis familiaris [4]): 3 µM

CC1=NCCN1CC(O)c1ccc(NS(C)(=O)=O)cc1.Cl (configuration not stated)
minimal effective dose (Canis familiaris [5]): 2 mg/kg
BP (Canis familiaris [6]): 2%
APD95 (Canis familiaris [1]): 63%
HR (Canis familiaris [7]): -21%
FRP (Canis familiaris [2]): 42% and 38%
C20 FRP (Canis familiaris [3]): 1.1 µM and 1.9 µM
HR (Canis familiaris [8]): -23%
C20 APD95 (Canis familiaris [4]): 0.6 µM
BP (Canis familiaris [9]): -1%
FRP (Canis familiaris [10]): 22%

C[n+]1ccn(CC(O)c2ccc(NS(C)(=O)=O)cc2)c1.[Cl-] (configuration not stated)
minimal effective dose (Canis familiaris [5]): 6.5 mg/kg
HR (Canis familiaris [11]): -23%
BP (Canis familiaris [12]): 0%
BP (Canis familiaris [6]): 5%
APD95 (Canis familiaris [1]): 50%
FRP (Canis familiaris [2]): 31%
C20 FRP (Canis familiaris [3]): 5.9 µM
HR (Canis familiaris [8]): -10%
C20 APD95 (Canis familiaris [4]): 1.6 µM
FRP (Canis familiaris [10]): 21%

Cc1n2c(c[n+]1C)C(c1ccc(NS(C)(=O)=O)cc1)CCC2.[I-] (configuration not stated)
APD95 (Canis familiaris [1]): 27%
FRP (Canis familiaris [13]): Not reached
C20 APD95 (Canis familiaris [4]): 46.6 µM

CC(C)NCC(O)c1ccc(NS(C)(=O)=O)cc1 (configuration not stated) [SOTALOL]
minimal effective dose (Canis familiaris [5]): 1.4 mg/kg
HR (Canis familiaris [14]): -23%
BP (Canis familiaris [6]): 8%
APD95 (Canis familiaris [1]): 48%
FRP (Canis familiaris [2]): 23%
C20 FRP (Canis familiaris [3]): 24.7 µM
BP (Canis familiaris [15]): -23%
HR (Canis familiaris [8]): -11%
C20 APD95 (Canis familiaris [4]): 14.4 µM
FRP (Canis familiaris [10]): 16%

CC1=NCCN1CC(=O)c1ccc(NS(C)(=O)=O)cc1
APD95 (Canis familiaris [1]): 74%
FRP (Canis familiaris [2]): 38%
C20 FRP (Canis familiaris [3]): 6.3 µM
C20 APD95 (Canis familiaris [4]): 1.3 µM

C[n+]1ccn(CCc2ccc(O)cc2)c1.[Cl-]
APD95 (Canis familiaris [1]): 20%
FRP (Canis familiaris [2]): 7%
APD95 (Canis familiaris [16]): 23%
C20 FRP (Canis familiaris [3]): 50.1 µM
C20 APD95 (Canis familiaris [4]): 6.2 µM

CCCCCCC[N+](CC)(CC)CCCCc1ccc(Cl)cc1 [CLOFILIUM]
minimal effective dose (Canis familiaris [5]): 0.63 mg/kg
BP (Canis familiaris [6]): -4%
FRP (Canis familiaris [2]): 7%
HR (Canis familiaris [17]): -12%
APD95 (Canis familiaris [16]): 39%
HR (Canis familiaris [8]): -18%
C20 APD95 (Canis familiaris [4]): 0.26 µM
BP (Canis familiaris [18]): 2%
FRP (Canis familiaris [10]): 22%

CC(C(O)c1ccc(NS(C)(=O)=O)cc1)n1cc[n+](C)c1.[Cl-] (configuration not stated)
APD95 (Canis familiaris [1]): 36%
FRP (Canis familiaris [2]): 31%
C20 FRP (Canis familiaris [3]): 11.2 µM
C20 APD95 (Canis familiaris [4]): 4.2 µM

C[n+]1ccn(/C=C/c2ccc(O)cc2)c1.[Br-]
APD95 (Canis familiaris [1]): 27%
APD95 (Canis familiaris [16]): 23% and 20%
C20 APD95 (Canis familiaris [4]): 10.2 µM

C[n+]1ccn(CC(C)(O)c2ccc(NS(C)(=O)=O)cc2)c1.[Cl-] (configuration not stated)
APD95 (Canis familiaris [1]): 71%
FRP (Canis familiaris [2]): 29%
C20 FRP (Canis familiaris [3]): 24.3 µM
C20 APD95 (Canis familiaris [4]): 1.5 µM

Cc1n2c(c[n+]1C)C(c1ccc(NS(C)(=O)=O)cc1)=CCC2.[I-]
APD95 (Canis familiaris [1]): 38%
FRP (Canis familiaris [2]): 40%
C20 FRP (Canis familiaris [3]): 2.9 µM
C20 APD95 (Canis familiaris [4]): 2.8 µM

Cn1cc[n+](C)c1C(O)c1ccc(NS(C)(=O)=O)cc1.[I-] (configuration not stated)
APD95 (Canis familiaris [1]): 37%
FRP (Canis familiaris [2]): 17%
C20 APD95 (Canis familiaris [4]): 20.7 µM

CS(=O)(=O)Nc1ccc(C(=O)C[n+]2ccsc2)cc1.[Cl-]
APD95 (Canis familiaris [1]): 80%
FRP (Canis familiaris [2]): 17%
C20 FRP (Canis familiaris [3]): 10 µM
C20 APD95 (Canis familiaris [4]): 3.1 µM
